Tested on: 186277-243-T-J2-PDC complex spheroid viability
Experiment: Anticancer human tumor 186277-243-T-J2-PDC patient-derived colon adenocarcinoma cell line growth inhibition [POLQ]
Details: for IC50: curve of first compound; for viability, T/C: stronger effect = lower value; active = viability on the fitted dose curve at most 10% of control; inactive = the rest
How it was run: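 Patient-derived tumour cells were co-cultured with HUVEC and mesenchymal stem cells as multicellular spheroids at 37 °C. They were treated with POLQ inhibitors (novobiocin, ART-558, RP6685) alone or combined with other agents. Top concentrations were at or near clinical Cmax (otherwise 10 microM; SN-38 at 1 microM), decreasing in half-log steps.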

[1] = second compound 0.0316 µM, first compound 0.0316 µM
[2] = second compound 0.0316 µM, first compound 0.1 µM
[3] = second compound 0.0316 µM, first compound 0.316 µM
[4] = second compound 0.0316 µM, first compound 1 µM
[5] = second compound 0.0316 µM, first compound 3.16 µM
[6] = second compound 0.0316 µM, first compound 10 µM
[7] = second compound 0.1 µM, first compound 0.0316 µM
[8] = second compound 0.1 µM, first compound 0.1 µM
[9] = second compound 0.1 µM, first compound 0.316 µM
[10] = second compound 0.1 µM, first compound 1 µM
[11] = second compound 0.1 µM, first compound 3.16 µM
[12] = second compound 0.1 µM, first compound 10 µM
[13] = second compound 0.316 µM, first compound 0.0316 µM
[14] = second compound 0.316 µM, first compound 0.1 µM
[15] = second compound 0.316 µM, first compound 0.316 µM
[16] = second compound 0.316 µM, first compound 1 µM
[17] = second compound 0.316 µM, first compound 3.16 µM
[18] = second compound 0.316 µM, first compound 10 µM
[19] = second compound 1 µM, first compound 0.0316 µM
[20] = second compound 1 µM, first compound 0.1 µM
[21] = second compound 1 µM, first compound 0.316 µM
[22] = second compound 1 µM, first compound 1 µM
[23] = second compound 1 µM, first compound 3.16 µM
[24] = second compound 1 µM, first compound 10 µM
[25] = second compound 3.16 µM, first compound 0.0316 µM
[26] = second compound 3.16 µM, first compound 0.1 µM
[27] = second compound 3.16 µM, first compound 0.316 µM
[28] = second compound 3.16 µM, first compound 1 µM
[29] = second compound 3.16 µM, first compound 3.16 µM
[30] = second compound 3.16 µM, first compound 10 µM
[31] = second compound 10 µM, first compound 0.0316 µM
[32] = second compound 10 µM, first compound 0.1 µM
[33] = second compound 10 µM, first compound 0.316 µM
[34] = second compound 10 µM, first compound 1 µM
[35] = second compound 10 µM, first compound 3.16 µM
[36] = second compound 10 µM, first compound 10 µM
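Also: spheroids exposed to compounds for seven days.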
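For viability, T/C in this document: 100% = DMSO vehicle control viability.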

O=c1[nH]cc(F)c(=O)[nH]1 + COC1C(OC(N)=O)C(O)C(Oc2ccc3c(O)c(NC(=O)c4ccc(O)c(CC=C(C)C)c4)c(=O)oc3c2C)OC1(C)C
9.8 µM: IC50 (second compound 10 µM)
inactive: viability, T/C [1] 88% | viability, T/C [2] 100% | viability, T/C [3] 104% | viability, T/C [4] 106% | viability, T/C [5] 70% | viability, T/C [6] 49.9% | viability, T/C [7] 92% | viability, T/C [8] 105% | viability, T/C [9] 104% | viability, T/C [10] 100% | viability, T/C [11] 70% | viability, T/C [12] 52% | viability, T/C [13] 104% | viability, T/C [14] 108% | viability, T/C [15] 114% | viability, T/C [16] 119% | viability, T/C [17] 69.3% | viability, T/C [18] 49.6% | viability, T/C [19] 109% | viability, T/C [20] 111% | viability, T/C [21] 86.2% | viability, T/C [22] 102% | viability, T/C [23] 69% | viability, T/C [24] 49.8% | viability, T/C [25] 102% | viability, T/C [26] 115% | viability, T/C [27] 109% | viability, T/C [28] 107% | viability, T/C [29] 66.9% | viability, T/C [30] 49.1% | viability, T/C [31] 117% | viability, T/C [32] 97.2% | viability, T/C [33] 108% | viability, T/C [34] 105% | viability, T/C [35] 73.5% | viability, T/C [36] 49.6%
> 10 µM: IC50 (second compound 0.0316 µM) | IC50 (second compound 0.1 µM) | IC50 (second compound 0.316 µM)
9.82 µM: IC50 (second compound 1 µM)
9.69 µM: IC50 (second compound 3.16 µM)

COc1ccc([C@@H](O)c2cc(-c3ncnc4cc(N5CCOCC5)ccc34)c(F)cc2Cl)nn1 + Nc1ccc(C#CCN(C(=O)Cc2ncc(C(F)(F)F)cc2C(F)(F)F)c2ccc(F)cc2)nn1
inactive: viability, T/C [1] 104% | viability, T/C [2] 109% | viability, T/C [3] 110% | viability, T/C [4] 103% | viability, T/C [5] 90.2% | viability, T/C [6] 58.5% | viability, T/C [7] 97.6% | viability, T/C [8] 106% | viability, T/C [9] 99.5% | viability, T/C [10] 96.3% | viability, T/C [11] 101% | viability, T/C [12] 67.7% | viability, T/C [13] 99.3% | viability, T/C [14] 95.6% | viability, T/C [15] 107% | viability, T/C [16] 108% | viability, T/C [17] 101% | viability, T/C [18] 60% | viability, T/C [19] 114% | viability, T/C [20] 101% | viability, T/C [21] 104% | viability, T/C [22] 95.4% | viability, T/C [23] 98.3% | viability, T/C [24] 63.8% | viability, T/C [25] 111% | viability, T/C [26] 105% | viability, T/C [27] 97.6% | viability, T/C [28] 116% | viability, T/C [29] 99.7% | viability, T/C [30] 63.2% | viability, T/C [31] 104% | viability, T/C [32] 90.6% | viability, T/C [33] 102% | viability, T/C [34] 114% | viability, T/C [35] 111% | viability, T/C [36] 57%
> 10 µM: IC50 (second compound 0.0316 µM) | IC50 (second compound 0.1 µM) | IC50 (second compound 0.316 µM) | IC50 (second compound 1 µM) | IC50 (second compound 3.16 µM) | IC50 (second compound 10 µM)

CC(=O)O[C@H]1C(=O)[C@@]2(C)[C@H]([C@H](OC(=O)c3ccccc3)[C@]3(O)C[C@H](OC(=O)[C@H](O)[C@@H](NC(=O)c4ccccc4)c4ccccc4)C(C)=C1C3(C)C)[C@]1(OC(C)=O)CO[C@@H]1C[C@@H]2O + Nc1ccc(C#CCN(C(=O)Cc2ncc(C(F)(F)F)cc2C(F)(F)F)c2ccc(F)cc2)nn1
< 0.00949 µM: IC50 (second compound 0.0316 µM) | IC50 (second compound 0.1 µM) | IC50 (second compound 0.316 µM) | IC50 (second compound 1 µM) | IC50 (second compound 3.16 µM) | IC50 (second compound 10 µM)
inactive: viability, T/C (second compound 0.0316 µM, first compound 0.00949 µM) 42.4% | viability, T/C (second compound 0.0316 µM, first compound 0.03 µM) 12.5% | viability, T/C (second compound 0.1 µM, first compound 0.00949 µM) 41.4% | viability, T/C (second compound 0.1 µM, first compound 0.03 µM) 10.8% | viability, T/C (second compound 0.316 µM, first compound 0.00949 µM) 41.7% | viability, T/C (second compound 0.316 µM, first compound 0.03 µM) 11.7% | viability, T/C (second compound 1 µM, first compound 0.00949 µM) 36.1% | viability, T/C (second compound 1 µM, first compound 0.03 µM) 13.4% | viability, T/C (second compound 3.16 µM, first compound 0.00949 µM) 28.4% | viability, T/C (second compound 3.16 µM, first compound 0.03 µM) 10.8% | viability, T/C (second compound 10 µM, first compound 0.00949 µM) 21.8%
active: viability, T/C (second compound 0.0316 µM, first compound 0.0949 µM) 7.75% | viability, T/C (second compound 0.0316 µM, first compound 0.3 µM) 6.21% | viability, T/C (second compound 0.0316 µM, first compound 0.949 µM) 5.52% | viability, T/C (second compound 0.0316 µM, first compound 3 µM) 8.14% | viability, T/C (second compound 0.1 µM, first compound 0.0949 µM) 7.09% | viability, T/C (second compound 0.1 µM, first compound 0.3 µM) 5.96% | viability, T/C (second compound 0.1 µM, first compound 0.949 µM) 6.1% | viability, T/C (second compound 0.1 µM, first compound 3 µM) 5.64% | viability, T/C (second compound 0.316 µM, first compound 0.0949 µM) 7.17% | viability, T/C (second compound 0.316 µM, first compound 0.3 µM) 6.38% | viability, T/C (second compound 0.316 µM, first compound 0.949 µM) 5.86% | viability, T/C (second compound 0.316 µM, first compound 3 µM) 6.59% | viability, T/C (second compound 1 µM, first compound 0.0949 µM) 6.63% | viability, T/C (second compound 1 µM, first compound 0.3 µM) 5.56% | viability, T/C (second compound 1 µM, first compound 0.949 µM) 6.34% | viability, T/C (second compound 1 µM, first compound 3 µM) 5.24% | viability, T/C (second compound 3.16 µM, first compound 0.0949 µM) 7.02% | viability, T/C (second compound 3.16 µM, first compound 0.3 µM) 6.36% | viability, T/C (second compound 3.16 µM, first compound 0.949 µM) 6.4% | viability, T/C (second compound 3.16 µM, first compound 3 µM) 4.96% | viability, T/C (second compound 10 µM, first compound 0.03 µM) 8.01% | viability, T/C (second compound 10 µM, first compound 0.0949 µM) 6.35% | viability, T/C (second compound 10 µM, first compound 0.3 µM) 5.6% | viability, T/C (second compound 10 µM, first compound 0.949 µM) 7.72% | viability, T/C (second compound 10 µM, first compound 3 µM) 5.68%

COc1ccc([C@@H](O)c2cc(-c3ncnc4cc(N5CCOCC5)ccc34)c(F)cc2Cl)nn1 + COC1C(OC(N)=O)C(O)C(Oc2ccc3c(O)c(NC(=O)c4ccc(O)c(CC=C(C)C)c4)c(=O)oc3c2C)OC1(C)C
6.3 µM: IC50 (second compound 0.0316 µM)
6.16 µM: IC50 (second compound 1 µM)
5.55 µM: IC50 (second compound 0.316 µM)
5.34 µM: IC50 (second compound 3.16 µM)
5.67 µM: IC50 (second compound 10 µM)
5.61 µM: IC50 (second compound 0.1 µM)
inactive: viability, T/C [1] 102% | viability, T/C [2] 97.2% | viability, T/C [3] 109% | viability, T/C [4] 95.2% | viability, T/C [5] 79% | viability, T/C [6] 30.7% | viability, T/C [7] 103% | viability, T/C [8] 92.2% | viability, T/C [9] 106% | viability, T/C [10] 99.2% | viability, T/C [11] 72.6% | viability, T/C [12] 27.1% | viability, T/C [13] 102% | viability, T/C [14] 108% | viability, T/C [15] 108% | viability, T/C [16] 110% | viability, T/C [17] 71.1% | viability, T/C [18] 27.9% | viability, T/C [19] 90.9% | viability, T/C [20] 101% | viability, T/C [21] 113% | viability, T/C [22] 110% | viability, T/C [23] 78% | viability, T/C [24] 29.7% | viability, T/C [25] 106% | viability, T/C [26] 103% | viability, T/C [27] 108% | viability, T/C [28] 116% | viability, T/C [29] 70% | viability, T/C [30] 26.1% | viability, T/C [31] 108% | viability, T/C [32] 101% | viability, T/C [33] 109% | viability, T/C [34] 101% | viability, T/C [35] 72.6% | viability, T/C [36] 28%

CC1COCCN1c1cc(C2(O)CC3CCC(C2)O3)c2cnn(-c3ccn[nH]3)c2n1 (stereo not given) + Nc1ccc(C#CCN(C(=O)Cc2ncc(C(F)(F)F)cc2C(F)(F)F)c2ccc(F)cc2)nn1
inactive: viability, T/C [1] 107% | viability, T/C [2] 19.5% | viability, T/C [7] 113% | viability, T/C [8] 20.2% | viability, T/C [13] 116% | viability, T/C [14] 22.6% | viability, T/C [19] 109% | viability, T/C [20] 17.5% | viability, T/C [25] 102% | viability, T/C [26] 17.9% | viability, T/C [31] 85.1% | viability, T/C [32] 12.7%
0.0671 µM: IC50 (second compound 0.0316 µM)
0.069 µM: IC50 (second compound 0.1 µM)
active: viability, T/C [3] 9.32% | viability, T/C [4] 6.59% | viability, T/C [5] 9.6% | viability, T/C [6] 7.56% | viability, T/C [9] 8.44% | viability, T/C [10] 6.39% | viability, T/C [11] 8.6% | viability, T/C [12] 8.62% | viability, T/C [15] 8.74% | viability, T/C [16] 6.2% | viability, T/C [17] 8.36% | viability, T/C [18] 8.22% | viability, T/C [21] 8.98% | viability, T/C [22] 6.1% | viability, T/C [23] 8.12% | viability, T/C [24] 7.01% | viability, T/C [27] 8.53% | viability, T/C [28] 7.23% | viability, T/C [29] 8.02% | viability, T/C [30] 9.12% | viability, T/C [33] 8.17% | viability, T/C [34] 5.8% | viability, T/C [35] 8.58% | viability, T/C [36] 6.5%
0.0713 µM: IC50 (second compound 0.316 µM)
0.0644 µM: IC50 (second compound 3.16 µM)
0.0664 µM: IC50 (second compound 1 µM)
0.0552 µM: IC50 (second compound 10 µM)
